The CC50 is the concentration giving 50% cytotoxicity. The term EC50 denotes the midpoint of the concentration-response curve.

The text below walks through data of ChEMBL document CHEMBL4393741, “Novel epidithiodiketopiperazines as anti-viral zinc ejectors of the Feline Immunodeficiency Virus (FIV) nucleocapsid protein as a model for HIV infection” (Bioorg Med Chem, 2019).

A short description of data set [1]: Acute cytotoxicity against cat CRFK cells assessed as decrease in cell viability at 10 uM measured after 24 hrs by MTT assay relative to control. The class given is cell-based, Felis catus. In general terms: Tetrazolium dyes change colour on reduction, which living cells bring about.
The nature of data set [2]: Chronic cytotoxicity against cat FL-4 cells assessed as decrease in cell viability measured after 7 days by MTT assay. The class given is cell-based, Felis catus.
The subject of data set [3] is Feline immunodeficiency virus. Briefly: Antiviral activity against FIV infected in cat FL-4 cells assessed as reduction in viral RNA level measured after 7 days by qRT-PCR analysis. The class given is functional, organism-based. The conditions noted are these: FL-4, 168 h.
A short description of data set [4]: Therapeutic index, ratio of CC50 for cat FL-4 cells to EC50 for antiviral activity against FIV infected in cat FL-4 cells. Format: toxicity, cell-based. The conditions noted are these: read-out: Ratio CC50/EC50.
The nature of data set [5]: Solubility of the compound. The class given is physicochemical.
The nature of data set [6]: Aqueous solubility of the compound. The class given is physicochemical. The conditions noted are these: buffer.

For the compound `CN1C(=O)[C@]2(Cc3ccccc3)SS[C@@]1(CO)C(=O)N2C`, the Activity in data set [1] was found to be 74%.
Turning to `O=C1[C@H](S)N(Cc2ccccc2)C(=O)[C@H](S)N1Cc1ccccc1`, the CC50 at 168 h in data set [2] came out at 15000 nM. Further, the EC50 in data set [3] was 1800 nM. The Activity in data set [1] was above 100%.
`O=C1[C@@H]2SS[C@@H](C(=O)N2Cc2ccccc2)N1Cc1ccccc1` (racemic): the CC50 at 168 h in data set [2] came out at 4700 nM. Besides, in data set [3], the EC50 was in the range of 3900 to 4000 nM. In addition, the Activity in data set [1] is given as above 100%. The selectivity ratio in data set [4] was found to be 1.2.
For `C=CCN1C(=O)[C@@H]2SS[C@H]1C(=O)N2Cc1ccccc1` (racemic) the same measures were 5100 nM, 2100 nM, 96% and 2.4.
`CC(C)N1C(=O)[C@@H]2SS[C@H]1C(=O)N2Cc1ccccc1` (racemic): in data set [2], the CC50 at 168 h was 6500 nM. For the same compound, the EC50 in data set [3] was 1600 nM. For the same compound, in data set [1], the Activity turned out to be 50%. The selectivity ratio in data set [4] amounted to 4.
As to `COC(=O)CCCCCN1C(=O)[C@@H]2SS[C@H]1C(=O)N2Cc1ccccc1` (racemic), the CC50 at 168 h in data set [2] is above 10000 nM. Moreover, in data set [3], the EC50 is 34 nM. For the same compound, the Activity in data set [1] was above 100%. Besides, the selectivity ratio in data set [4] is above 300. Moreover, the solubility result in data set [5] is listed as “Soluble”.
Turning to `CN1C(=O)[C@@H]2SS[C@H]1C(=O)N2C` (racemic), in data set [2], the CC50 at 168 h is above 10000 nM. Also, the concentration for a half-maximal effect (EC50) in data set [3] stood at 3000 nM. The Activity in data set [1] is 77%. For the same compound, the selectivity ratio in data set [4] was above 3. In data set [5], the solubility entry is reported as “Insoluble”.
As for `C=CC[C@@]12SS[C@@H](C(=O)N1Cc1ccccc1)N(Cc1ccccc1)C2=O` (racemic), the CC50 at 168 h in data set [2] is 6000 nM. For the same compound, the EC50 in data set [3] was found to be 88 nM. Moreover, in data set [1], the Activity is on record as above 100%. Also, the selectivity ratio in data set [4] is 69.
On to `CCCCN1C(=O)[C@@H]2SS[C@H]1C(=O)N2Cc1ccccc1` (racemic), for which the CC50 at 168 h in data set [2] was above 10000 nM. The EC50 in data set [3] amounted to 630 nM. Besides, the Activity in data set [1] was determined as 63%. Further, in data set [4], the selectivity ratio is above 16.
For `CN1C(=O)[C@@H]2SS[C@H]1C(=O)N2Cc1ccccc1` (racemic) the same measures were above 10000 nM, 910 nM, above 100% and above 11.
For `O=C1[C@@H]2SS[C@@H](C(=O)N2Cc2cccc(Cl)c2)N1Cc1ccccc1` (racemic) the same measures were above 100000 nM, 550 nM, above 100% and above 184.
Consider `CCOC(=O)CCCN1C(=O)[C@@H]2SS[C@H]1C(=O)N2Cc1ccccc1` (racemic), for which the CC50 at 168 h in data set [2] was determined as 7500 nM. Moreover, the EC50 in data set [3] came to 160 nM. The Activity in data set [1] is above 100%. For the same compound, the selectivity ratio in data set [4] turned out to be 48. Also, the solubility entry in data set [5] is given as “Soluble”.
In the case of `O=C1[C@@H]2SS[C@@H](C(=O)N2Cc2cccc3ccccc23)N1Cc1ccccc1` (racemic), the cytotoxic concentration (CC50) at 168 h in data set [2] amounted to 7200 nM. The EC50 in data set [3] is 1900 nM. Also, the Activity in data set [1] is listed as above 100%. Besides, in data set [4], the selectivity ratio was 4.
Take `CCOC(=O)CCN1C(=O)[C@@H]2SS[C@H]1C(=O)N2Cc1ccccc1` (racemic): the CC50 at 168 h in data set [2] was above 10000 nM. Further, the EC50 in data set [3] amounted to 53 nM. Besides, the Activity in data set [1] was above 100%. Also, the selectivity ratio in data set [4] was above 190. Moreover, the solubility entry in data set [5] is “Soluble”.
Regarding `C=CCN1C(=O)[C@@H]2SS[C@@]1(CC=C)C(=O)N2Cc1ccccc1` (racemic), the CC50 at 168 h in data set [2] was above 100000 nM. In addition, the EC50 in data set [3] is above 10000 nM. In data set [6], the solubility entry is reported as “Insoluble”. In data set [1], the Activity is reported as above 100%.
For `C=CCN1C(=O)[C@@H]2SS[C@@]1(Cc1ccccc1)C(=O)N2Cc1ccccc1` (racemic), the CC50 at 168 h in data set [2] came out at 720 nM. The EC50 in data set [3] came to 110 nM. Further, in data set [1], the Activity was determined as 85%. Besides, the selectivity ratio in data set [4] turned out to be 6.7.
In the case of `COc1ccc(CN2C(=O)[C@@H]3SS[C@H]2C(=O)N3Cc2ccccc2)cc1` (racemic), in data set [2], the CC50 at 168 h came out at 5400 nM. Further, the EC50 in data set [3] was determined as 410 nM. In data set [1], the Activity was 99%.
Take `C=CCN1C(=O)[C@]2(CC=C)SS[C@@]1(CC=C)C(=O)N2CC=C` (racemic): the CC50 at 168 h in data set [2] came out at 8800 nM. Also, in data set [3], the half-maximal effective concentration (EC50) worked out at 880 nM. The Activity in data set [1] is 99%. Further, the selectivity ratio in data set [4] is 10.
Turning to `C=CCN1C(=O)[C@]2(Cc3ccccc3)SS[C@H]1C(=O)N2Cc1ccccc1` (racemic), the cytotoxic concentration (CC50) at 168 h in data set [2] is 79000 nM. In data set [3], the concentration giving a half-maximal response (EC50) was 890 nM. In addition, the Activity in data set [1] is on record as above 100%. In data set [4], the selectivity ratio came out at 88.
Take `CS[C@H]1C(=O)N(Cc2ccccc2)[C@@H](SC)C(=O)N1Cc1ccccc1` (relative stereo): the 50% cytotoxic concentration (CC50) at 168 h in data set [2] was above 100000 nM. For the same compound, the EC50 in data set [3] is above 100000 nM. Moreover, the Activity in data set [1] was 96%.
As to `CN1C(=O)[C@@]23C[C@]4([C@]56C[C@@]78SS[C@@](CO)(C(=O)N7[C@H]5Nc5ccccc56)N(C)C8=O)c5ccccc5N[C@@H]4N2C(=O)[C@]1(CO)SS3` [CHAETOCIN], in data set [2], the CC50 at 168 h came out at 3.5 nM. In data set [3], the EC50 was 1.7 nM. The Activity in data set [1] was 11%. Moreover, the selectivity ratio in data set [4] worked out at 2.1.
Turning to `CN1C(=O)[C@]23CC4=CC=C[C@H](O)[C@H]4N2C(=O)[C@@]1(CO)SS3` [GLIOTOXIN], the Activity in data set [1] stood at 6.1%.
For `Cc1nnc(C(=O)NC(C)(C)c2nc(C(=O)NCc3ccc(F)cc3)c(O)c(=O)n2C)o1` [RALTEGRAVIR], the CC50 at 168 h in data set [2] was above 100000 nM. The EC50 in data set [3] came to 10 nM. The Activity in data set [1] is listed as above 100%. In addition, the selectivity ratio in data set [4] was above 10000.
Consider `Cc1cn([C@H]2C[C@H](N=[N+]=[N-])[C@@H](CO)O2)c(=O)[nH]c1=O` [ZIDOVUDINE], for which the CC50 at 168 h in data set [2] is above 100000 nM. The EC50 in data set [3] was determined as 5300 nM. Besides, in data set [1], the Activity was above 100%.
